Experimental data taken from patent publication US4767865A, “3'-pyridinylalkylinden- and 3'-pyridinylalkylindol-2-carboxylic acids and analogs” (The Upjohn Company, priority 1987, dated 1988).
Structures can show the parent of a compound that is named as a salt. Where two headings read alike, the source gives them in different places.

How the values were obtained:
thromboxane synthetase = test: Inhibition of Thromboxane A2 biosynthesis in platelet rich plasma; assay type: cell-based; conditions: at 1 μg/ml
Method: In this system, 6-(3-pyridylmethyl)indene-2-carboxylic acid inhibited thromboxane synthetase 95% as compared to control at 1 μg/ml.

TXA2 synthetase = target: T1, TXA2 synthetase (Homo sapiens, UniProt P24557); test: TXA2 synthetase inhibition: TXA2 produced by mixing PGH2 and HPM, measured by response of the rabbit aorta; assay type: biochemical; conditions: test compound added to HPM 5 minutes before mixing with PGH2, approximate
T1 construct: from tissue; host or cells: HPM (read as human platelet microsomes)
T1 sequence (P24557 1-533): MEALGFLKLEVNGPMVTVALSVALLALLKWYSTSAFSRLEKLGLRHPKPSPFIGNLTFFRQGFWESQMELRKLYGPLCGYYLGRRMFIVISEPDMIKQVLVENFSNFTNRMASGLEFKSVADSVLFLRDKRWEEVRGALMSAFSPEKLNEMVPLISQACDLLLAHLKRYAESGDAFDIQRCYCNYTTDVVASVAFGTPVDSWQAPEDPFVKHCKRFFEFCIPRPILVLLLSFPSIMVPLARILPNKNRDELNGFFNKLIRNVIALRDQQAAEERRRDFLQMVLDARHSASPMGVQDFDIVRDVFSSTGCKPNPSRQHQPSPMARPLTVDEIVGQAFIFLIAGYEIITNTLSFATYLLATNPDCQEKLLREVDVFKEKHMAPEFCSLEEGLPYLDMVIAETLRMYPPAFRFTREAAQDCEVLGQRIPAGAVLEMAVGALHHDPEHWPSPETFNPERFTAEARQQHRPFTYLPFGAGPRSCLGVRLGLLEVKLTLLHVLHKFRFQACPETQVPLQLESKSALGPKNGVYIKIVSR
Method: Potential inhibitors were tested by comparing the response of the rabbit aorta to the amount of TXA2 produced by mixing PGH2 and HPM without the test compound in the reaction medium and then the amount of TXA2 produced when the test compound was added to the HPM 5 minutes before the HPM was mixed with PGH2. […] For a discussion of TXA2 synthetase inhibition testing see, e.g., R. Gorman, supra.

Row | IC50 (TXA2 synthetase; read-out: approximate ED50 (lower bound)) [nM] | IC50 (TXA2 synthetase; read-out: approximate ED50 (upper bound)) [nM] | Structure (SMILES) | inhibited thromboxane synthetase as compared to control (thromboxane synthetase) [%]
1 |  |  | O=C(O)C1=Cc2ccc(Cc3cccnc3)cc2C1 [6-(3-Pyridylmethyl)indene-2-carboxylic Acid] | 95
2 | > 346 | < 3460 | O=C(O)c1cc2cc(NCc3cccnc3)ccc2[nH]1 [Sodium Salt] | 
